Patent EP1247803A2, “Indolinone compounds suitable for modulation of protein kinases” (Sugen, Inc., priority 1996, dated 1998)

Tests used:
[1] = target: PDGF-R (Homo sapiens, UniProt P09619); test: PDGF-R ELISA; assay type: cell-based
From the text: A PDGF-R ELISA is described in International Patent Publication No. WO 96/40116, published December 19, 1996 by Tang et al.

[2] = target: T1, EGFR (Homo sapiens, UniProt P00533); test: EGFR ELISA assay (in vitro kinase activity, EGFR captured from A431 cell lysate); assay type: biochemical; design: concentration or dose not given beside the values
T1 construct: Add 7 ug A431 cell lysate per well (EGFR source); endogenous in cells; host or cells: A431
From the text: To provide a consistent method for measuring the in vitro kinase activity of the EGFR in an Enzyme-linked immunosorbent assay (Elisa).
Scope. The following protocol describes the procedures used to analyze protein tyrosine kinase activity on the EGFR in an Elisa. The procedure also describes the protocol for the initial screening of drugs for inhibition or activation of protein tyrosine kinase activity.
Reagents and Supplies. • 1. […] 05-101 monoclonal anti-EGFR antibody (commercially available from UB1) -80° C, 1 ml aliquots • 3. […] TBST Buffer Formulation: 50 mM Tris pH 7.2 150 mM NaCl 0.1% Triton X-100 • 5. Blocking Buffer Formulation: 5% Carnation Instant Milk in PBS • 6. A431 cell lysate A431 cells are available from a variety of commercial sources and may be used lysed using conventional methods known to those skilled in the art or as described for lysis of the 3T3 cells in the EGF cellular assay described herein. -80° C, 1 ml aliquots • 7. TBS Buffer Formulation: 50 mM Tris pH 7.2 150 mM NaCl • 8. […] NUNC 96-well V bottom polypropylene plates Applied Scientific Catalog # AS-72092 • 11. EDTA Formulation: 200 mM EDTA pH 8.0 • 12. […] Goat anti-rabbit IgG peroxidase conjugate Biosource Catalog # ALI0404 • 14. ABTS Solution Formulation: 100 mM Citric Acid (anhydrous) 250 mM Na2HPO4 pH 4.0 0.5 mg/ml ABTS (2,2'-azino-bis(3-ethylbenzthiazoline-6-sulfonic acid) (Sigma Catalog # A-1888) Keep solution in dark at 4 C until ready to use • 15. Hydrogen peroxide 30% solution Fisher Catalog # H325 Store in the dark at 4 C until ready to use • 16. ABTS/H2O2 Formulation: 15 mls ABTS solution 2 ul H2O2 Prepare 5 minutes before use and room temperature • 17. 0.2 M HCL stock in H2O Procedure. • 1. Coat Corning 96-well elisa plates with 0.5 ug per well 05-101 antibody. Bring final volume to 100 ul per well with PBS. Coat plates overnight at 4° C. • 2. Remove unbound 05-101 from wells by inverting plate to remove liquid. Wash 1x with distilled H2O by filling wells Pat the plate on a paper towel to remove excess liquid. • 3. Block plates with 5% milk in PBS. 150 ul per well. Incubate plate 30 minutes while shaking on a microtiter plate shaker. • 4. Wash plate 3x with dionized water, then once with TBST • 5. Add 7 ug A431 cell lysate per well (EGFR source). Add PBS to final volume of 100 ul per well Incubate 30 minutes while shaking. • 6. Wash as described in step 4. • 7. At this point, drugs or extracts are added to the wells. Dilute drugs/extracts 1:100 (unless specified otherwise) in TBS + 10% DMSO in 96-well polypropylene plates. Add 120 ul TBS to ELISA plate containing captured EGFR. Add 13.5 ul diluted drugs/extracts to ELISA plate. […] Incubate plate 30 minutes while shaking. • 8. […] (150 ul final volume in well with 3 uM ATP/5 mM MnCl2 final concentration in well.) Incubate 5 minutes while shaking vigorously. *NOTE: It is critical that ATP/MnCl2 phosphorylates the receptor for 5 minutes only. It is best to add the ATP/MnCl2 with an 12 channel pipettor 1 row at a time leaving 20 seconds between each row so that the reaction may be stopped with EDTA exactly 5 minutes later (this depends on the number of plates being phosphorylated in one batch). Shake between each addition. • 9. After 5 minutes, to stop reaction, add 16.5 ul of 200 mM EDTA pH 8.0 for 20 mM final in well, shaking continuously between each addition. This is done using the same timing method as above. After last row has received EDTA, shake plate an additional minute. • 10. Wash 4x with deionized water, twice with TBST. • 11. Add rabbit polyclonal anti-phosphotyrosine serum. Dilute 1:3000 in TBST. Add 100 ul per well. Incubate 30-45 minutes while shaking. • 12. Wash as described above in step 4. • 13. Add BioSource anti-rabbit peroxidase conjugate antibody. Dilute 1:2000 in TBST. Add 100 ul per well. Incubate 30 minutes while shaking. • 14. Wash as described in step 4. • 15. Add 100 ul of ABTS/H2O2 solution to well. Incubate 5 to 10 minutes while shaking. Remove bubbles • 16. […]

T1 sequence (P00533 25-1210): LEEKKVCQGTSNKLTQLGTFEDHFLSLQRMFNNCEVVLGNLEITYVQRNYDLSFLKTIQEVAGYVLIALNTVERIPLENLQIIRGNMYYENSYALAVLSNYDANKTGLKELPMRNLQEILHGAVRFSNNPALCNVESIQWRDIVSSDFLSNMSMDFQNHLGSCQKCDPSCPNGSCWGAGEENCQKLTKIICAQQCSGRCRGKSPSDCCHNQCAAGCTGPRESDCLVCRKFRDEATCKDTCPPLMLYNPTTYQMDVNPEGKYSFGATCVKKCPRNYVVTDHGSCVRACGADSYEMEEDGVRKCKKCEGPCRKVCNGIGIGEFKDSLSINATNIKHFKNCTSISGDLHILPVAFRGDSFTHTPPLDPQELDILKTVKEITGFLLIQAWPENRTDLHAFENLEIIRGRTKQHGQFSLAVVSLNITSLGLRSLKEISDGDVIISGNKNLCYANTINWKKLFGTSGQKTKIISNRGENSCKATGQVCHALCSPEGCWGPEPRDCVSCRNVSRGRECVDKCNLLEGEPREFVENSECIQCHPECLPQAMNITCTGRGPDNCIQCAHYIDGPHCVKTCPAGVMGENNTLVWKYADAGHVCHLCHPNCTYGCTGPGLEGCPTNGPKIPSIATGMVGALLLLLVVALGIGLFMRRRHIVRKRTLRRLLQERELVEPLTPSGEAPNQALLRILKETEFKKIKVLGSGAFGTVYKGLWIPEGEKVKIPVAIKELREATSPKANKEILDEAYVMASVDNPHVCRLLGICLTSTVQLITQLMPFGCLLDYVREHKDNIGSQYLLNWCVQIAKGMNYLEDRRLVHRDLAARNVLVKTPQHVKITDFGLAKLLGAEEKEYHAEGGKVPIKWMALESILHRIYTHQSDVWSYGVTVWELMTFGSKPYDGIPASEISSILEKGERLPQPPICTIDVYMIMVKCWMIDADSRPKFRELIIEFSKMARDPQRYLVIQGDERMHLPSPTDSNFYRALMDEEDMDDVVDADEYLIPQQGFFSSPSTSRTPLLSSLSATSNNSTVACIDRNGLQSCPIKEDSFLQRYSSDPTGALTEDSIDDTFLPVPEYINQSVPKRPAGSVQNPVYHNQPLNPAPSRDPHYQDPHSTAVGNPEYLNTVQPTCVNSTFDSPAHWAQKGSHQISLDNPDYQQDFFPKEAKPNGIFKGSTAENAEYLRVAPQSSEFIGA
PDGF-R, sequence (P09619 33-1106, species assumed): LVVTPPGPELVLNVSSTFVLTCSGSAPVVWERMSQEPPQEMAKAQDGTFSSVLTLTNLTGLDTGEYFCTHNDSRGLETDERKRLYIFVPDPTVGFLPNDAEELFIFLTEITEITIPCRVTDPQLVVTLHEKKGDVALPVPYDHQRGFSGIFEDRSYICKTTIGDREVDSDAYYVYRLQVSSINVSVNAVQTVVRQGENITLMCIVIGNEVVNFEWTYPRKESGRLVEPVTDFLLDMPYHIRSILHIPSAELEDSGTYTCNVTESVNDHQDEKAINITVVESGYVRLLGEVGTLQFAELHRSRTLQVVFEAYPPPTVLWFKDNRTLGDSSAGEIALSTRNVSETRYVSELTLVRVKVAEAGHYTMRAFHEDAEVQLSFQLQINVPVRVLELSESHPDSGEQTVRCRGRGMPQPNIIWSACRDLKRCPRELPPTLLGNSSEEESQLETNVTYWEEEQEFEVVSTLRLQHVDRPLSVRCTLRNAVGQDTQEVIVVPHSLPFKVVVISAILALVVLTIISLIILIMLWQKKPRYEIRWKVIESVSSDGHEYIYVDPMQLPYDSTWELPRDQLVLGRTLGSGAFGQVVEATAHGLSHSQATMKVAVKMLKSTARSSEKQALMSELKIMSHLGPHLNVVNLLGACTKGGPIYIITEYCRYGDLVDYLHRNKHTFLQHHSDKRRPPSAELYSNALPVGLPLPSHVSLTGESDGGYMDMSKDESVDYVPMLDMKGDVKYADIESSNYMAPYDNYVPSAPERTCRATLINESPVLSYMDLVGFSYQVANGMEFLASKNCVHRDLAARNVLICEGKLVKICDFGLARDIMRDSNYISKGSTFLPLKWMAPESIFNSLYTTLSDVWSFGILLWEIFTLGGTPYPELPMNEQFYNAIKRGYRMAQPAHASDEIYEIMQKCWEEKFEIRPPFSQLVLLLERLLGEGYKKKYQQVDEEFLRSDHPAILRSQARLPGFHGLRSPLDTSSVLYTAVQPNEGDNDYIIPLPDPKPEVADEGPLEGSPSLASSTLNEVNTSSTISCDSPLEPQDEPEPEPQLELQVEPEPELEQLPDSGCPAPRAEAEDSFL

SMILES	PDGF Kinase %Inhibition [1]	Biochem EGFR %Inhibition [2]
O=C1Nc2c(Br)cc(Br)cc2C1=CC(c1cccs1)C(F)(F)F (centres unmarked) [10732/A02]	10.8%	5.1%
CC(C)(C)c1cc(C=C2C(=O)Nc3ccc(I)cc32)cc(Br)c1OCc1ccccc1 [10732/B08]	16.9%	7.8%
CNS(=O)(=O)c1ccc2c(c1)C(=Cc1c[nH]c3ccc(OC)cc13)C(=O)N2 [10731/D09]	-2.0%	12.6%
CNS(=O)(=O)c1ccc2c(c1)C(=C1C(=O)N(C)c3ccccc31)C(=O)N2 [10731/D10]	9.9%	15.8%
COc1c(Cl)cc(C=C2C(=O)Nc3ccc(Br)c(C)c32)cc1C(C)(C)C [10732/C09]	15.4%	-3.9%
C=C(C)C1CC=C(C=C2C(=O)Nc3ccc(S(=O)(=O)N4CCOCC4)cc32)CC1 (centres unmarked) [10731/F04]	3.2%	5.0%
COc1c(C(C)C)cc(C=C2C(=O)Nc3ccc(Br)c(C)c32)cc1C(C)C [10732/C03]	7.3%	1.4%
CCOC(=O)c1cc(C=C2C(=O)Nc3ccc(S(=O)(=O)NC)cc32)oc1C [10718/D06]		20.0%
CNS(=O)(=O)c1ccc2c(c1)C(=Cc1ccc(OC)c(C(C)(C)C)c1)C(=O)N2 [10732/D05]	4.3%	-36.7%
O=C1Nc2ccc(I)cc2C1=CC(c1cccs1)C(F)(F)F (centres unmarked) [10732/B02]	23.5%	-26.0%
COc1ccc(C=C2C(=O)Nc3ccc(I)cc32)cc1C(C)(C)C [10732/B05]	21.9%	17.0%
COc1c(I)cc(C=C2C(=O)Nc3ccc(Br)c(C)c32)cc1C(C)(C)C [10732/C11]	16.4%	-5.0%
O=C1Nc2ccc(CCCl)cc2C1=Cc1coc2ccc([N+](=O)[O-])cc2c1=O [10731/G07]	40.8%	0.7%
COc1c(C(C)C)cc(C=C2C(=O)Nc3ccc(I)cc32)cc1C(C)C [10732/B03]	17.4%	-15.3%
CCOC(=O)c1c(C)[nH]c(C=C2C(=O)Nc3ccc(S(=O)(=O)NC)cc32)c1C [10718/D02]		14.4%
CNS(=O)(=O)c1ccc2c(c1)C(=Cc1coc3ccc(C)cc3c1=O)C(=O)N2 [10731/D06]	8.0%	23.2%
Cc1cc2occ(C=C3C(=O)Nc4ccc(S(=O)(=O)Nc5ccc(C(F)(F)F)cc5)cc43)c(=O)c2cc1C [10731/E03]	15.6%	10.4%
C=C(C)C1CC=C(C=C2C(=O)Nc3ccc(S(=O)(=O)Nc4ccc(C(F)(F)F)cc4)cc32)CC1 (centres unmarked) [10731/E04]	30.8%	13.6%

SMILES	PDGF Kinase %Inhibition [1]	Biochem EGFR %Inhibition [2]
Cc1cc2occ(C=C3C(=O)Nc4ccc(CCCl)cc43)c(=O)c2cc1C [10731/G03]	6.5%	7.7%
COc1c(I)cc(C=C2C(=O)Nc3c(Br)cc(Br)cc32)cc1C(C)(C)C [10732/A11]	40.1%	1.8%
O=C1Nc2ccc(S(=O)(=O)Nc3ccc(C(F)(F)F)cc3)cc2C1=Cc1coc2ccc([N+](=O)[O-])cc2c1=O [10731/E07]	3.7%	38.4%
COc1c(Br)cc(C=C2C(=O)Nc3c(Br)cc(Br)cc32)cc1C(C)(C)C [10732/A07]	0.7%	-0.3%
CC(C)(C)c1cc(C=C2C(=O)Nc3c(Br)cc(Br)cc32)ccc1OCc1ccccc1 [10732/A06]	12.3%	-1.4%
CNS(=O)(=O)c1ccc2c(c1)C(=Cc1c[nH]c(=O)[nH]c1=O)C(=O)N2 [10731/D08]	-8.7%	16.8%
CNS(=O)(=O)c1ccc2c(c1)C(=Cc1ccc(OCc3ccccc3)c(C(C)(C)C)c1)C(=O)N2 [10732/D06]	16.4%	3.6%
CC(C)(C)c1cc(C=C2C(=O)Nc3c(Br)cc(Br)cc32)cc(Cl)c1OCc1ccccc1 [10732/A10]	7.3%	6.1%
CNS(=O)(=O)c1ccc2c(c1)C(=Cc1cc(C(C)C)c(Oc3ccccc3)c(C(C)C)c1)C(=O)N2 [10732/D04]	50.7%	-11.4%
CCn1c2ccccc2c2cc(C=C3C(=O)Nc4ccc(S(=O)(=O)Nc5ccc(C(F)(F)F)cc5)cc43)ccc21 [10731/E02]	13.7%	7.9%
CC(C)c1cc(C=C2C(=O)Nc3ccc(I)cc32)cc(C(C)C)c1Oc1ccccc1 [10732/B04]	16.9%	-22.1%
Cc1ccc2occ(C=C3C(=O)Nc4ccc(S(=O)(=O)N5CCOCC5)cc43)c(=O)c2c1 [10731/F06]	-23.4%	7.2%
Cc1c(Br)ccc2c1C(=Cc1ccc(OCc3ccccc3)c(C(C)(C)C)c1)C(=O)N2 [10732/C06]	5.3%	-43.2%
CNS(=O)(=O)c1ccc2c(c1)C(=Cc1cc(OC)cc(Br)c1O)C(=O)N2 [10718/D03]		61.9%
Cc1c(Br)ccc2c1C(=Cc1ccc([N+](=O)[O-])o1)C(=O)N2 [10718/C11]		-0.2%
CNS(=O)(=O)c1ccc2c(c1)C(=Cc1ccc3ccccc3c1O)C(=O)N2 [10718/D04]		52.0%
Cc1c(Br)ccc2c1C(=Cc1ccco1)C(=O)N2 [10718/C10]		-18.7%
CCOC(=O)CCc1c(C(=O)OCC)[nH]c(C=C2C(=O)Nc3ccc(S(=O)(=O)NC)cc32)c1CC(=O)OCC [10718/D05]		2.8%
